Like-named read-outs stand apart in the source and are kept apart here.
How the values were obtained:
carotid thrombosis = test system: carotid thrombosis; design: method as in Choi et al. (2015); details: mice; ref Choi et al. (2015); cited from earlier work
coagulation factor X = test system: coagulation factor X; design: method as in Choi et al. (2015); details: ref Choi et al. (2015); cited from earlier work
NOXs = assay: NADPH oxidase (NOX) activity assay in platelet lysate; type: cell-based, human; details: convulxin (5 ng/mL)- and collagen (10 μg/mL)-induced; VAS2870 10 μM
Protocol: MDA, SOD, GPx, and NADPH oxidase activity were measured as previously described ([Krotz et al., 2002]; [Paul et al., 2019]; [Pan et al., 2021]). After incubation and activation, the reaction was stopped by adding 10 mM EGTA. The platelets were pelleted by centrifugation at 20,000 × g for 10 min at 4°C and resuspended in Tyrode’s buffer with 0.1% phosphatase and protease inhibitors (Cat No. 04906837001, Roche Applied Science, Penzberg, Germany; Cat No. P-8340, Sigma, St. Louis, MO, United States). The platelets were disrupted by passing them 10 times through a 29-gauge needle, followed by centrifugation at 2000 × g for 10 min at 4°C to separate the supernatant and precipitate. The detection of MDA, SOD, and GPx in the supernatant was performed according to the kit’s instructions for SOD (Cat No. BC0170, Solarbio Life Science, Beijing, China), MDA (Cat No. S0131S, Beyotime Institute of Biotechnology, Shanghai, China) and GPx (Cat No. S0056, Beyotime Institute of Biotechnology, Shanghai, China). In order to determine NADPH oxidase (NOX) activity, platelet lysate (12.5 μg) was incubated with 10 µM lucigenin and 0.5 mM NADPH at 37°C in the dark. The absorbance values were detected at 450 nm using a spectrophotometer Multiskan FC (ThermoFisher Scientific Inc., Waltham, MA, United States). Protein content was determined by the Bradford method.

human washed platelets [1] = assay: Platelet-collagen static adhesion assay; type: cell-based
Protocol: As previously reported ([Banfi et al., 2022]), 50 μg/mL collagen and 25 μg/mL fibrinogen (Cat No. F3879-100 MG; Sigma-Aldrich, St. Louis, MO, United States) were used to coat coverslips overnight at 4°C. […] The coated slides were washed three times with PBS and blocked with 1% BSA (prepared in PBS) for 1 h at room temperature. The blocking solution was removed, and WPs were added for adhesion experiments. The WPs were allowed to adhere to the slides for 15–60 min at 37°C. The unadhered platelets were removed by PBS. The platelets were fixed with 2% paraformaldehyde solution for 15 min, broken using 1% Triton-100 for 5 min, and stained with phalloidin (1:1,000, Cat No.17466-45-4, Sigma-Aldrich) for 30 min away from light at room temperature. The platelet morphology was observed using an Olympus ix73 microscope (Olympus Corp., Shinjuku, Japan) and photographed. The number of platelet adhesions and spreading area were analyzed and calculated using ImageJ software.

thrombin = test system: thrombin; design: method as in Choi et al. (2015); details: ref Choi et al. (2015); cited from earlier work
[2] = test system: mesenteric artery thrombosis; assay: Ferric chloride-induced mesenteric thrombosis in mice; type: in vivo, C57BL/6 mice; details: luteolin 35 μM/kg or aspirin 0.5 mM/kg i.p., 30 min before FeCl3
Protocol: A method reported in the literature was used to observe mesenteric artery thrombosis in mice ([Bonnard and […], 2015]). […] The mice were anesthetized by an intraperitoneal injection of pentobarbital (45 mg/kg). They were given an intraperitoneal injection of DMSO, luteolin, or aspirin. They were also given an orbital vein injection of 5 μg/kg rhodamine (Cat No. 83697-250 MG; Sigma-Aldrich, St. Louis, MO, United States) ([Bonnard and […], 2015]), respectively. The mesenteric vessels were exposed by opening the abdominal cavity, and small mesenteric arteries with a diameter of approximately 150-250 μm were selected under the microscope. […] During thrombosis, images were taken every 1 min for the first 10 min and every 5 min after 10 min using an MSHOT MD50 camera (Micro Shot Technology Ltd., Guangzhou, China) and an Olympus ix73 microscope (Olympus Corp., Shinjuku, Japan). […] The size of the thrombus formation was calculated using ImageJ software.

human washed platelets [3] = assay: Platelet ATP release assay (luciferin/luciferase); type: cell-based; details: for IC50: Homo sapiens, Platelet
Protocol: Blood was collected from a median cubital vein using a 3.8% sodium citrate anticoagulation tube with a 1:9 dilution ratio. The platelets were washed using a previously described method with slight modification ([Babur et al., 2020]; [Uphaus et al., 2022]). The blood was centrifuged at room temperature at 300 × g for 10 min to separate platelet-rich plasma (PRP). PRP was added to 50 ng/mL of PGE1 and 5 mM EDTA, centrifuged at 2,000 × g for 2 min at room temperature, and the platelet precipitate was obtained after discarding the supernatant. The modified HEPES-Tyrode’s buffer (20 mM 4-(2-Hydroxyethyl)-1-piperazine ethane sulfonic acid [HEPES], pH 7.3, 129 mM NaCl, 2.9 mM KCl, 12 mM NaHCO3, 0.34 mM Na2HPO4, 20 mM HEPES, 5 mM D-Glucose, 1 mM MgCl2) was used to resuspend the platelets, added with 50 ng/mL PGE1 and 5 mM EDTA, and the platelets were washed by centrifugation at 2,000 ×g for 2 min at room temperature. The washed platelets (WP) were resuspended using modified HEPES-Tyrode’s buffer, and the platelet count was adjusted to 150–200 × 10^9/L.
Platelet aggregation and ATP release were detected using the Chrono-Log platelet aggregation instrument (Chrono-Log Corp., Havertown, Pennsylvania, United States), as previously reported ([Babur et al., 2020]). […] In addition, 1 mM CaCl2 and different platelet activators (ADP, collagen, and thrombin; Chrono-Log Corp., Havertown, Pennsylvania, United States; U46619, from Sigma, St. Louis, MO, United States; convulxin, sc-202554 from Santa Cruz Biotechnology, Santa Cruz, CA, United States) were added to each group before the start of the aggregation assay. For the ATP release experiments, the platelets were incubated with 50 ng/mL luciferin and D-luciferase (Cat No. 395; Chrono-Log Corp.) for 2 min before the addition of activators. The platelet aggregation and ATP release curves were traced during experiments.

In the case of O=c1cc(-c2ccc(O)c(O)c2)oc2cc(O)cc(O)c12 [Luteolin], the FeCl3-induced carotid thrombosis (carotid thrombosis) is listed as “significantly inhibits”, the “coagulation factor X activity” value (coagulation factor X) is listed as “effectively inhibits” and the NOXs activity (NOXs) is listed as “significantly decreased”. For the same molecule, the “adherent area vs vehicle” value (human washed platelets [1]; luteolin 25 µM, at 15, 30, 45, and 60 min) was “decreased”, the “surface per platelet vs vehicle” value (human washed platelets [1]; luteolin 25 µM, at 15, 45, and 60 min) was “decreased” and the “surface per platelet vs vehicle” value (human washed platelets [1]; luteolin 2.5 and 10 µM, at 15 and 45 min) was “decreased”. For the same molecule, the “adherent area vs vehicle” value (human washed platelets [1]; luteolin 2.5 and 10 µM, at 60 min) was “slightly decreased”, the “platelet adherence (number of adherent platelets) on collagen vs vehicle” value (human washed platelets [1]; luteolin 10 and 25 µM, at 45 and 60 min) was “significantly decreased” and the thrombin activity (thrombin) was “effectively inhibits”. For the same molecule, the “time of clot obstruction of blood vessels” value [2] was “significantly prolong”, the “time of initial thrombus formation” value [2] was “Neither the 0.5 mM/kg aspirin group or 35 μM/kg luteolin group prolonged” and the IC50 (human washed platelets [3]; read-out: IC50, inhibition of ATP release, convulxin-induced) was 2370 nM. For the same molecule, the IC50 (human washed platelets [3]; collagen-induced, read-out: IC50, inhibition of ATP release) was 2670 nM and the “effect on platelet ATP release” value (human washed platelets [3]; convulxin- and collagen-induced, concentration-dependent) was “significantly inhibited”.
